Source: PubChem BioAssay AID330 (DTP/NCI, 2004)
Several values for one entry are separate records, joined by “and”; a condition that tells them apart may be missing. Equal values may be shown once. Toxic doses and inconclusive results are not listed.

Tested on: P388 leukemia ip, CD2F1 mice, survival T/C
Test: NCI In Vivo Anticancer Drug Screen. Data for tumor model P388 Leukemia (intraperitoneal) in CD2F1 (CDF1) mice
Conditions: endpoint: median survival time, higher = longer survival
Procedure, shortened: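 Mice carrying the transplanted tumor received test compound or vehicle. Survival was recorded in each group, and the value is the treated-group measurement divided by that of the vehicle-treated control group.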

[1] = dose: 50.0 mg/kg/injection, schedule: Q01DX009 (ip), vehicle: Klucel (hydroxypropylcellulose) (HPC)
[2] = dose: 100.0 mg/kg/injection, schedule: Q01DX009 (ip), vehicle: Klucel (hydroxypropylcellulose) (HPC)
[3] = dose: 200.0 mg/kg/injection, schedule: Q01DX009 (ip), vehicle: Klucel (hydroxypropylcellulose) (HPC)
[4] = dose: 50.0 mg/kg/injection, schedule: Q01DX005 (ip), vehicle: Klucel (hydroxypropylcellulose) (HPC)
[5] = dose: 100.0 mg/kg/injection, schedule: Q01DX005 (ip), vehicle: Klucel (hydroxypropylcellulose) (HPC)
[6] = dose: 50.0 mg/kg/injection, schedule: Q01DX009 (ip), vehicle: saline with Tween-80
[7] = dose: 100.0 mg/kg/injection, schedule: Q01DX009 (ip), vehicle: saline with Tween-80
[8] = dose: 200.0 mg/kg/injection, schedule: Q01DX009 (ip), vehicle: saline with Tween-80
[9] = dose: 400.0 mg/kg/injection, schedule: Q01DX009 (ip), vehicle: saline with Tween-80
[10] = dose: 60.0 mg/kg/injection, schedule: Q01DX005 (ip), vehicle: saline with Tween-80
[11] = dose: 120.0 mg/kg/injection, schedule: Q01DX005 (ip), vehicle: saline with Tween-80
[12] = dose: 240.0 mg/kg/injection, schedule: Q01DX005 (ip), vehicle: saline with Tween-80
[13] = dose: 12.5 mg/kg/injection, schedule: Q01DX005 (ip), vehicle: saline
[14] = dose: 25.0 mg/kg/injection, schedule: Q01DX005 (ip), vehicle: saline
[15] = dose: 12.5 mg/kg/injection, schedule: Q01DX009 (ip), vehicle: saline with Tween-80
[16] = dose: 25.0 mg/kg/injection, schedule: Q01DX009 (ip), vehicle: saline with Tween-80
[17] = dose: 25.0 mg/kg/injection, schedule: Q01DX009 (ip), vehicle: saline
[18] = dose: 50.0 mg/kg/injection, schedule: Q01DX009 (ip), vehicle: suspension in saline

In the case of `CON(Cc1ccc(C(=O)NC(C)C)cc1)Cc1ccc(C(=O)NC(C)C)cc1`, the T/C (dose: 25.0 mg/kg/injection, schedule: Q01DX009 (ip), vehicle: other) is reported as 94 % of control, the T/C (dose: 50.0 mg/kg/injection, schedule: Q01DX009 (ip), vehicle: other) is reported as 100 % of control and the T/C (dose: 100.0 mg/kg/injection, schedule: Q01DX009 (ip), vehicle: other) is reported as 92 % of control.
`CCCCN1C(=O)c2ccc(N)cc2C1=O` was tested, and the T/C [1] was 100 % of control, the T/C [2] was 97 % of control and the T/C [3] was 110 % of control.
With `[Cl][Ge]([c]1ccccc1)[c]1ccccc1.c1cc[c]([GeH][c]2ccccc2)cc1` the T/C [4] was 93 % of control, the T/C [5] was 100 % of control and the T/C (dose: 200.0 mg/kg/injection, schedule: Q01DX005 (ip), vehicle: Klucel (hydroxypropylcellulose) (HPC)) was 103 % of control.
`CN(C)/C=C1\C(=O)O[C@H]2CCC[C@@]12C` was tested, and the T/C (dose: 100.0 mg/kg/injection, schedule: Q01DX001 (ip), vehicle: saline with Tween-80) was 107 % of control and the T/C (dose: 200.0 mg/kg/injection, schedule: Q01DX001 (ip), vehicle: saline with Tween-80) was 106 % of control.
`CC(C)CC(NC(=O)C(Cc1ccccc1)NC(=O)OCCc1ccccn1)C(=O)OC(C)(C)C` (stereo unspecified) was tested, and the T/C (dose: 60.0 mg/kg/injection, schedule: Q01DX005 (ip), vehicle: saline) was 101 % of control, the T/C (dose: 120.0 mg/kg/injection, schedule: Q01DX005 (ip), vehicle: saline) was 95 % of control and the T/C (dose: 240.0 mg/kg/injection, schedule: Q01DX005 (ip), vehicle: saline) was 87 % of control.
`CCCCN(CCCC)CC(O)c1c2cccc(Cl)c2cc2c(Cl)cccc12` (stereo unspecified) was tested, and the T/C [6] was 98 % of control and 99 % of control, the T/C [7] was 99 % of control and 92 % of control and the T/C [8] was 90 % of control. The T/C [9] was 90 % of control.
For `CSc1nc(NC2OCC(O)C(O)C2O)c(Cl)c(=O)n1C` (stereo unspecified), the T/C [10] was 103 % of control, the T/C [11] was 104 % of control and the T/C [12] was 100 % of control.
For `COc1cc(NC(C)CCCNC(C)C)c2ncccc2c1OC` (stereo unspecified), the T/C (dose: 6.25 mg/kg/injection, schedule: Q01DX005 (ip), vehicle: saline) was 103 % of control, the T/C [13] was 93 % of control and the T/C [14] was 93 % of control.
`CC1(C)C=C(NC(=O)N2CC2)C(C)(C)N1O` was tested, and the T/C (dose: 6.25 mg/kg/injection, schedule: Q01DX009 (ip), vehicle: saline with Tween-80) was 100 % of control, the T/C [15] was 103 % of control and the T/C [16] was 103 % of control. The T/C [6] was 117 % of control.
In the case of `COC(=O)C(NP(=O)(NC(C(=O)OC)c1ccccc1)N(CCCl)CCCl)c1ccccc1` (stereo unspecified), the T/C (dose: 7.5 mg/kg/injection, schedule: Q01DX005 (ip), vehicle: saline with Tween-80) is reported as 102 % of control, the T/C (dose: 15.0 mg/kg/injection, schedule: Q01DX005 (ip), vehicle: saline with Tween-80) is reported as 100 % of control and the T/C (dose: 30.0 mg/kg/injection, schedule: Q01DX005 (ip), vehicle: saline with Tween-80) is reported as 101 % of control.
For `NS(=O)(=O)c1ccc(N=CC2C(=O)N(c3ccccc3)N(c3ccccc3)C2=O)cc1`, the T/C (dose: 100.0 mg/kg/injection, schedule: Q01DX001 (ip), vehicle: Klucel (hydroxypropylcellulose) (HPC)) was 87 % of control, the T/C (dose: 200.0 mg/kg/injection, schedule: Q01DX001 (ip), vehicle: Klucel (hydroxypropylcellulose) (HPC)) was 89 % of control and the T/C (dose: 400.0 mg/kg/injection, schedule: Q01DX001 (ip), vehicle: Klucel (hydroxypropylcellulose) (HPC)) was 92 % of control.
With `COc1ccc(C=NC#N)cc1` the T/C [1] was 101 % of control, the T/C [2] was 93 % of control and the T/C [3] was 88 % of control.
In the case of `O=C(O)CCC(=O)NCC1CCCC(CNC(=O)CCC(=O)O)C1` (stereo unspecified), the T/C [1] is reported as 96 % of control, the T/C [2] is reported as 110 % of control and the T/C [3] is reported as 101 % of control.
With `Cc1ncc([N+](=O)[O-])n1CCOC(=O)c1ccc(F)cc1` the T/C [6] was 99 % of control, the T/C [7] was 92 % of control and the T/C [8] was 97 % of control.
For `COc1ccc(C(=O)/C=C/c2ccc3c(c2)OCO3)c(OCc2ccccc2)c1`, the T/C (dose: 3.75 mg/kg/injection, schedule: Q01DX009 (ip), vehicle: Klucel (hydroxypropylcellulose) (HPC)) was 98 % of control, the T/C (dose: 7.5 mg/kg/injection, schedule: Q01DX009 (ip), vehicle: Klucel (hydroxypropylcellulose) (HPC)) was 99 % of control and the T/C (dose: 15.0 mg/kg/injection, schedule: Q01DX009 (ip), vehicle: Klucel (hydroxypropylcellulose) (HPC)) was 98 % of control. For the same compound, the T/C (dose: 30.0 mg/kg/injection, schedule: Q01DX009 (ip), vehicle: Klucel (hydroxypropylcellulose) (HPC)) was 94 % of control.
With `CCOC(=O)NC(=O)c1c(C)oc(C)cc1=O` the T/C [1] was 118 % of control, the T/C [2] was 115 % of control and the T/C [3] was 107 % of control.
With `CCO/C=C/C(=O)O` the T/C [10] was 106 % of control, the T/C [11] was 100 % of control and the T/C [12] was 107 % of control.
`CC(=O)N(C)O` was tested, and the T/C [6] was 100 % of control and 104 % of control, the T/C [7] was 105 % of control and 110 % of control and the T/C (dose: 200.0 mg/kg/injection, schedule: Q01DX005 (ip), vehicle: saline with Tween-80) was 121 % of control. The T/C [9] was 160 % of control.
With `O=[N+]([O-])c1cccc(SNCCO)c1` the T/C [15] was 108 % of control, the T/C [16] was 100 % of control and the T/C [6] was 100 % of control and 94 % of control.
For `COc1cc(NCCCCC(C)N)c2nccc(C)c2c1` (stereo unspecified), the T/C (dose: 12.5 mg/kg/injection, schedule: Q01DX009 (ip), vehicle: saline) was 94 % of control and the T/C [17] was 92 % of control.
With `CCOC(=O)C1(CO)C(=O)Nc2ccccc21` (stereo unspecified) the T/C [1] was 110 % of control, the T/C [2] was 106 % of control and the T/C [3] was 107 % of control.
`COc1cc2c[n+](C)c3c4cc(OC)c(OC)cc4c(OC)cc3c2cc1OC` was tested, and the T/C (dose: 12.5 mg/kg/injection, schedule: Q01DX005 (ip), vehicle: Klucel (hydroxypropylcellulose) (HPC)) was 118 % of control, the T/C [14] was 109 % of control and the T/C [4] was 112 % of control. For the same compound, the T/C [5] was 118 % of control and the T/C (dose: 100.0 mg/kg/injection, schedule: Q01DX005 (ip), vehicle: saline) was 120 % of control.
`CCCCC[C@@H]1CC=C[C@@H](NC(=O)OCc2ccccc2)[C@H]1/C=C/C(=O)CCCCC1OCCO1` was tested, and the T/C (dose: 60.0 mg/kg/injection, schedule: Q01DX005 (ip), vehicle: DMSO) was 101 % of control, the T/C (dose: 120.0 mg/kg/injection, schedule: Q01DX005 (ip), vehicle: DMSO) was 93 % of control and the T/C (dose: 240.0 mg/kg/injection, schedule: Q01DX005 (ip), vehicle: DMSO) was 98 % of control.
In the case of `C#CCNC1=C(C)C(=O)C2=C(C1=O)[C@H](COC(N)=O)[C@]1(OC)[C@@H]3N[C@@H]3CN21`, the T/C (dose: 12.0 mg/kg/injection, schedule: Q01DX001 (ip), vehicle: distilled water + Tween-80) is reported as 163 % of control, the T/C (dose: 24.0 mg/kg/injection, schedule: Q01DX001 (ip), vehicle: distilled water + Tween-80) is reported as 173 % of control and the T/C (dose: 48.0 mg/kg/injection, schedule: Q01DX001 (ip), vehicle: distilled water + Tween-80) is reported as 165 % of control and 265 % of control. The T/C (dose: 96.0 mg/kg/injection, schedule: Q01DX001 (ip), vehicle: distilled water + Tween-80) was 203 % of control.
With `O=C(O)c1cc2cccc([N+](=O)[O-])c2[se]1` the T/C [18] was 106 % of control, the T/C (dose: 100.0 mg/kg/injection, schedule: Q01DX009 (ip), vehicle: suspension in saline) was 96 % of control and the T/C (dose: 200.0 mg/kg/injection, schedule: Q01DX009 (ip), vehicle: suspension in saline) was 113 % of control.
With `O=[N+]([O-])c1ccc(CCCl)cc1` the T/C [6] was 99 % of control, the T/C [7] was 88 % of control and the T/C [8] was 90 % of control.
For `Nc1[nH]c(=O)ncc1-c1ccccc1Cl`, the T/C [10] was 98 % of control, the T/C [11] was 104 % of control and the T/C [12] was 112 % of control.
In the case of `CCC(CC)NCCCNc1cc(OC)cc2cccnc12`, the T/C [13] is reported as 108 % of control and the T/C [14] is reported as 104 % of control.
`CCN(CC)C(=O)C(N)Cc1ccc(OC)c(N(CCCl)CCCl)c1` (stereo unspecified) was tested, and the T/C (dose: 6.25 mg/kg/injection, schedule: Q01DX009 (ip), vehicle: saline) was 113 % of control, the T/C (dose: 6.25 mg/kg/injection, schedule: Q01DX009 (ip), vehicle: suspension in saline) was 116 % of control and the T/C [17] was 150 % of control. For the same compound, the T/C (dose: 25.0 mg/kg/injection, schedule: Q01DX009 (ip), vehicle: suspension in saline) was 150 % of control, the T/C (dose: 50.0 mg/kg/injection, schedule: Q01DX009 (ip), vehicle: saline) was 177 % of control and the T/C [18] was 172 % of control.
In the case of `c1ccc(Sc2c(-c3ccccc3)c(-c3ccccc3)c3n2CCC3)cc1`, the T/C (dose: 60.0 mg/kg/injection, schedule: Q01DX005 (ip), vehicle: Klucel (hydroxypropylcellulose) (HPC)) is reported as 86 % of control and the T/C (dose: 120.0 mg/kg/injection, schedule: Q01DX005 (ip), vehicle: Klucel (hydroxypropylcellulose) (HPC)) is reported as 86 % of control.
